In publication PMC1950558 (Nucleic Acids Research, 2007):
Read-outs that look alike come from different tables or passages of the source.

Assays:
[1] = tested on: chronic B hepatitis virus load; conditions: woodchuck, in vivo; less efficiently than L-dC or L-dT; cited from earlier work
[2] = target: T1, human UMP-CMP kinase (hUCK) (Homo sapiens, UniProt P30085); conditions: cited from earlier work
T1 sequence (P30085 1-196): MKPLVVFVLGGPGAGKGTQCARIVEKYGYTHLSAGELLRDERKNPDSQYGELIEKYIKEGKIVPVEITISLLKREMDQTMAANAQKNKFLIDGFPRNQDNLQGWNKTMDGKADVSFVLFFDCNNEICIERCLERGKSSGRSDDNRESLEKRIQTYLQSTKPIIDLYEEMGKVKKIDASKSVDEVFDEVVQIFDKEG

hTMPK = target: T2, hTMPK (Homo sapiens, UniProt P23919); test: fluorescence competition assay with MABA-dTDP; type: binding
T2 sequence (P23919 1-212): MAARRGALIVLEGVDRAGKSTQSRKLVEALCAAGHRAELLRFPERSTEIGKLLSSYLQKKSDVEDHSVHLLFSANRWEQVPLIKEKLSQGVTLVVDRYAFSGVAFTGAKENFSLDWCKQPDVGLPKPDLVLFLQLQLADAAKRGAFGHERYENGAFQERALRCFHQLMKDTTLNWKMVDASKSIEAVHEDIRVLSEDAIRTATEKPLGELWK

hdCK = conditions: first phosphorylation of L-dT by hdCK; cited from earlier work
hTK2 = conditions: first phosphorylation of L-dT by hTK2; cited from earlier work
[3] = target: human AMP kinase 2 (hAK2, mitochondrial adenylate kinase) (Homo sapiens, UniProt P54819); test: coupled spectrophotometric NMP kinase assay, hAK2; conditions: for Km: hAK2, 37°C, 1 mM ATP, – = Non detectable; for phosphorylation (in words): hAK2
[4] = target: T3, human AMP kinase 1 (hAK1, cytosolic adenylate kinase) (Homo sapiens, UniProt P00568); test: coupled spectrophotometric NMP kinase assay, hAK1; type: biochemical; conditions: for Km: hAK1, 37°C, 1 mM ATP, – = Non detectable; for phosphorylation (in words): hAK1
T3 sequence (P00568 1-194): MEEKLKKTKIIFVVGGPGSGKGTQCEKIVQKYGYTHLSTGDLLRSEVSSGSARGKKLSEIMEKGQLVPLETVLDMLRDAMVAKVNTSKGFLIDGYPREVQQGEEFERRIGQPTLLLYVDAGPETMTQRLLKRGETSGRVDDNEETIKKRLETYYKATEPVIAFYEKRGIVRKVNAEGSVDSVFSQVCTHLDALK

[5] = target: T1, human UMP-CMP kinase (hUCK); test: coupled spectrophotometric NMP kinase assay, hUCK; type: biochemical; conditions: for Km: 37°C, 1 mM ATP; for Relative Vmax: relative to kcat of D-CMP (100 = kcat 130 s^−1)
[6] = tested on: Nc1ccn(C2OC(COP(=O)(O)O)C(O)C2O)c(=O)n1; test: purified protein, by the assay type; conditions: other: hAK2, 37°C, 1 mM ATP; – = Non detectable; 37.0 °C
[7] = tested on: Nc1ncnc2c1ncn2[C@@H]1C[C@@H](O)[C@H](COP(=O)(O)O)O1; test: purified protein, by the assay type; conditions: other: hAK2; – = Non detectable
[8] = target: T4, human dTMP kinase (hTMPK) (Homo sapiens, UniProt P23919); test: coupled spectrophotometric NMP kinase assay, hTMPK; type: biochemical
T4 sequence (P23919 1-212): T2 sequence (P23919 1-212)

phosphoglycerate kinase = conditions: conversion of L-dTDP into L-dTTP; cited from earlier work
[9] = 2 mM ATP and 2 mM Mg^2+ (Figure 2)

## Nc1ncnc2c1ncn2[C@@H]1C[C@@H](O)[C@H](CO)O1 [L-dA]
[1]
  effect on virus load (in words): reduced the virus load

## Nc1ccn([C@@H]2CS[C@H](COP(=O)(O)O)O2)c(=O)n1 [L-3TCMP]
[2]; for comparison
  Km: 150 ± 20 µM
[2]; relative to D-CMP
  Relative Vmax: 27%

## Cc1cn([C@@H]2C[C@@H](O)[C@H](CO)O2)c(=O)[nH]c1=O [L-dT, β-L-thymidine]
hTMPK
  Kd: 450 µM
hdCK
  catalytic efficiency: 16000 M⁻¹ s⁻¹
hTK2
  catalytic efficiency: 1e+07 M⁻¹ s⁻¹

## Nc1ncnc2c1ncn2[C@@H]1O[C@H](COP(=O)(O)O)[C@@H](O)[C@H]1O [D-AMP]
[3]
  Km: 80 ± 20 µM
[4]
  Km: 140 ± 20 µM

## Nc1ccn([C@H]2C[C@H](O)[C@@H](COP(=O)(O)O)O2)c(=O)n1 [D-dCMP]
[5]
  Km: 1000 ± 100 µM
  Relative Vmax: 61 ± 4%
[3]
  phosphorylation (in words): not substrates
[4]
  phosphorylation (in words): not substrates

## O=c1ccn([C@@H]2O[C@H](COP(=O)(O)O)[C@@H](O)[C@H]2O)c(=O)[nH]1 [D-UMP]
[5]
  Km: 50 ± 10 µM
  Relative Vmax: 100%
[4]
  Km: 6000 ± 2000 µM

## Nc1ncnc2c1ncn2[C@H]1C[C@H](O)[C@@H](COP(=O)(O)O)O1 [D-dAMP]
[3]
  Km: 210 ± 50 µM
[4]
  Km: 1500 ± 300 µM

## human AMP kinase 2 (hAK2, mitochondrial adenylate kinase) (Homo sapiens)
[6]
  Km: 6000 ± 1000 µM
[7]
  kcat/Km: 70 M⁻¹ s⁻¹

## [N-]=[N+]=N[C@@H]1[C@H](O)[C@@H](COP(=O)(O)O)O[C@H]1n1ccc(=O)[nH]c1=O [N3-D-dUMP]
[5]
  substrate inhibition at high concentration (in words): did not give rise to substrate inhibition
  Km: 900 ± 200 µM
  Relative Vmax: 89 ± 6%
[3]
  phosphorylation (in words): did not significantly phosphorylate
[4]
  phosphorylation (in words): did not significantly phosphorylate
[8]
  phosphorylation (in words): did not significantly phosphorylate

## Cc1cn(C2CC(O)C(COP(=O)(O)OP(=O)(O)O)O2)c(=O)[nH]c1=O [L-dTDP]
Phosphoglycerate kinase
  catalytic efficiency: 500 M⁻¹ s⁻¹

## O=c1ccn([C@H]2C[C@H](O)[C@@H](COP(=O)(O)O)O2)c(=O)[nH]1 [D-dUMP]
[5]
  Km: 1300 ± 300 µM
  Relative Vmax: 5.1 ± 0.5%
hTMPK; read-out: dissociation constant KD, calculated from IC50 with Equation (1)
  Kd: 150 µM
[3]
  phosphorylation (in words): not substrates
[4]
  phosphorylation (in words): not substrates
[8]; [9]
  Km: 170 ± 10 µM
  kcat: 4.8 ± 0.6 s⁻¹
